Source: PubChem BioAssay AID789 (SRMLSC, 2007)
The source made the active and inactive calls. No rule for the calls is given here.

Key:
[1] = growth inhibition of apl2Δ yeast, dose response, selectivity assay for post-Golgi transport modulator project, S. cerevisiae, secondary screen, background strain comparison (AID 789); conditions: S. cerevisiae background (wild-type parent) strain growth inhibition
[2] = tested on: S. cerevisiae apl2Δ mutant growth inhibition; assay: as above

Row | SMILES | IC50 [1] [µM] | IC50 [2]
1 | Cc1cc(OCC(F)(F)C(F)(F)C(F)(F)C(F)(F)C(F)(F)C(F)F)nc(N)n1 | > 10 | > 10 µM (inactive)
2 | FC(F)(F)COc1nc(N2CCCCC2)nc(N2CCNCC2)n1 | > 10 | > 10 µM (inactive)
3 | CCOc1ccc(NC(=O)C/C(N)=N/O)cc1 | > 10 | > 10 µM (inactive)
4 | CCCCS(=O)(=O)/C=C\C=C/S(=O)(=O)CCCC | 13.9 | 19.8 µM (inactive)
5 | N#Cc1nc(COc2ccc(-c3ccccc3)cc2)oc1NCCCN1CCOCC1 | 15.4 | 17.2 µM (inactive)
6 | Cc1nc(NC(=O)c2ccccc2)sc1-c1csc(Nc2ccc(F)cc2)n1 | > 10 | > 10 µM (inactive)
7 | CC1=CC(C)(C)Nc2ccc(OC(=O)CN3C(=O)c4cccc5cccc(c45)C3=O)cc21 | > 10 | > 10 µM (inactive)
8 | COc1ccc(Nc2nc(N)nc(CSc3nnc(N)s3)n2)cc1 | > 10 | > 10 µM (inactive)
9 | CCOC(=O)COc1ccccc1C1Nc2ccccc2C(=O)N1c1cccc(Cl)c1 (stereo not given) | > 10 | > 10 µM (inactive)
10 | COc1ccccc1N1CCN(Cc2ccccc2F)CC1 | > 10 | > 10 µM (inactive)
11 | CCOC(=O)Cn1cc(C=O)c2ccccc21 | > 10 | > 10 µM (inactive)
12 | O=S(=O)(c1cnccc1N1CCN(/N=C/c2ccc(Br)cc2)CC1)N1CCCCC1 | > 10 | > 10 µM (inactive)
13 | Clc1ccc(-c2n[nH]c3c2CCC3)c(Cl)c1 | 0.518 | 1.12 µM (inactive)
14 | CCOC(=O)C1=C(CSc2nc(-c3ccccc3)ccc2C#N)OC(N)=C(C#N)C1c1cccnc1 (stereo not given) | > 10 | > 10 µM (inactive)
15 | N#Cc1cn(-c2ccccc2)nc1-c1cc2ccccc2oc1=O | > 10 | > 10 µM (inactive)
16 | COc1cc(CN2CCN(c3ccc(C)cc3)CC2)cc([N+](=O)[O-])c1O | > 10 | > 10 µM (inactive)
17 | Cc1nn(-c2ccccn2)c(C)c1Oc1ccccc1O | > 10 | > 10 µM (inactive)
18 | CCN1CCN(c2c(Cl)cccc2NC(=O)c2ccc(Br)o2)CC1 | > 10 | > 10 µM (inactive)
19 | O=C(O)c1ccc(N2CCCCC2)cc1 | > 10 | > 10 µM (inactive)
20 | COc1ccccc1N1CCN(CC(O)c2ccc3cc[nH]c3c2)CC1 (stereo not given) | > 10 | > 10 µM (inactive)
21 | CC(C)Cc1[nH]c(=O)c(C#N)c2c1CCC2 | > 10 | > 10 µM (inactive)
22 | CCN(CC)c1ccc(CN2CC=C(c3ccc(F)cc3)CC2)cc1 | 25.8 | 17.3 µM
23 | O=C(OCn1ncc(Cl)c(Cl)c1=O)c1ccccc1Cl | 16.6 | > 10 µM (inactive)
24 | O=C(C1COc2ccccc2O1)N1CCN(Cc2ccc3c(c2)OCO3)CC1 (stereo not given) | > 10 | > 10 µM (inactive)
25 | CCCCOc1ccc(-c2ncc(C(=O)O)c(C)n2)cc1 | > 10 | > 10 µM (inactive)
26 | CCCCCOc1ccc(Cl)cc1CN1CCOCC1 | > 10 | > 10 µM (inactive)
27 | O=C(Nc1nnc(-c2ccc3c(c2)CCCC3)o1)c1ccc(Cl)cc1Cl | 3.46 | > 10 µM (inactive)

Row | SMILES | IC50 [1] [µM] | IC50 [2]
28 | CCOC(=O)c1c(CN2CCCCC2C)oc2ccc(OC)cc12 (stereo not given) | > 10 | > 10 µM (inactive)
29 | CCC(=O)c1ccc(N2CCN(C(=O)c3ccc(Br)cc3)CC2)c(F)c1 | > 10 | > 10 µM (inactive)
30 | O=C(NCc1ccc2c(c1)OCO2)c1ccc(-n2cnnn2)cc1 | > 10 | > 10 µM (inactive)
31 | Cc1ccc(C2N(c3ccc(Cl)c(Cl)c3)C(=O)C3CCCN32)o1 (stereo not given) | > 10 | > 10 µM (inactive)
32 | COc1cccc(-c2cc(C(=O)N3CCN(C(c4ccccc4)c4ccccc4)CC3)no2)c1 | > 10 | > 10 µM (inactive)
33 | CCOCCCNC(=O)c1cc2sc(Cl)cc2n1CC | > 10 | > 10 µM (inactive)
34 | Cc1ccc(C(=O)c2c(NC(=O)c3ccncc3)sc3c2CCCC3)cc1 | > 10 | > 10 µM (inactive)
35 | O=C1CN(C(=O)CSc2nnc(-c3ccccc3)n2Cc2ccc3c(c2)OCO3)c2ccccc2N1 | > 10 | > 10 µM (inactive)
36 | Cc1c(C)c2cc(Cl)c(O)c(CN3CCN(C)CC3)c2oc1=O | > 10 | > 10 µM (inactive)
37 | CCOC(=O)C1=C(N)N2C(=O)C(C)SC2=C(C(=O)OC)C1c1ccccc1OC (stereo not given) | 0.163 | 9.99 µM (inactive)
38 | CN1CCN(CCCNC(=O)Cn2nc(-c3ccccc3)ccc2=O)CC1 | > 10 | > 10 µM (inactive)
39 | C=C(C)C1CC=C(CN2CCC(C(=O)OCC)CC2)CC1 (stereo not given) | > 10 | > 10 µM (inactive)
40 | CCN(CC)CCCN(Cc1cc2cc3c(cc2[nH]c1=O)OCCO3)C(=O)Nc1ccc(F)cc1 | > 10 | > 10 µM (inactive)
41 | COCCNC(=O)C(c1ccc(F)cc1)N(CC1CCCO1)C(=O)CCC(=O)Nc1ccccn1 (stereo not given) | > 10 | > 10 µM (inactive)
42 | COC(=O)C1=CN(CCCN2CCCC2=O)C=C(C(=O)OC)C1c1ccccc1C(F)(F)F | > 10 | > 10 µM (inactive)
43 | O=C(NCc1ccco1)C(c1cccs1)N(C(=O)Cc1cccs1)c1ccccc1 (stereo not given) | > 10 | > 10 µM (inactive)
44 | Nc1ccc(Oc2ccc3nc(-c4ccccc4)c(-c4ccccc4)nc3c2)cc1 | 1.21 | 2 µM (inactive)
45 | CCOCCCNC(=O)C1CCN(C(=O)N(C)C)CC1 | > 10 | > 10 µM (inactive)
46 | O=C(NC1CCCC1)C(c1ccsc1)N(C(=O)Cc1cccs1)c1ccc(F)cc1 (stereo not given) | > 10 | > 10 µM (inactive)
47 | CCCc1cc(NCCCCO)n2c(nc3ccccc32)c1C#N | > 10 | > 10 µM (inactive)
48 | CC(C)c1ccc(C2C3CSCC=C3C(C#N)=C(N)C2(C#N)C#N)cc1 (stereo not given) | 0.843 | 1.84 µM (inactive)
49 | O=C(c1ccco1)N1CCN=C1SCc1cccnc1 | > 10 | > 10 µM (inactive)
50 | C=CCc1ccc(OCC(O)CN2CCC(Cc3ccccc3)CC2)c(OC)c1 (stereo not given) | 19.1 | 12.5 µM
51 | CN1C(=O)/C(=C/c2cccn2-c2ccc3ccccc3c2)C(=O)NC1=S | 6.58 | 11.3 µM (inactive)
52 | CCCCC1(CCCC)C(=O)NC(=Nc2cccc(C)c2)NC1=O | > 10 | > 10 µM (inactive)
53 | O=C(O)c1cc(-c2ccc(/C=N/Nc3ccc(Cl)cc3)o2)ccc1Cl | 16.4 | 15.5 µM
54 | CCN(CC)c1ccc(-c2nc3cnccc3n2C)cc1 | > 10 | > 10 µM (inactive)

Row | SMILES | IC50 [1] [µM] | IC50 [2]
55 | CS(=O)(=O)N1CCC(C(=O)NCCN2CCN(Cc3ccccc3)CC2)CC1 | > 10 | > 10 µM (inactive)
56 | COCCCn1c2nc3ccccc3nc2c2c(=O)n(-c3ccccc3OC)cnc21 | > 10 | > 10 µM (inactive)
57 | CCc1cc2c(=O)c(Oc3ccccc3F)c(C)oc2c(CN(C)C)c1O | > 10 | > 10 µM (inactive)
58 | N=c1c2c(-c3ccccc3)c(-c3ccccc3)n(Cc3ccco3)c2ncn1Cc1ccco1 | 21.5 | 16.7 µM
59 | O=C(Cn1ncc2c3ccccc3n(Cc3ccccc3F)c2c1=O)N1CCC2(CC1)OCCO2 | > 10 | > 10 µM (inactive)
60 | Cc1ccc(C)c(NS(=O)(=O)c2cc(C(=O)N3CCc4ccccc4C3)ccc2Cl)c1 | 6.88 | 5.74 µM
61 | Cc1cccc(-n2c(N)c(C(=O)NCCN3CCOCC3)c3nc4ccccc4nc32)c1 | > 10 | > 10 µM (inactive)
62 | CCCn1c(SCc2cc(=O)oc3ccc4ccccc4c23)n[nH]c1=O | > 10 | > 10 µM (inactive)
63 | Cc1cc([N+](=O)[O-])c(-c2ccc(/C=N/n3cnnc3)o2)cc1Cl | 0.134 | 0.526 µM (inactive)
64 | COc1ccc(-c2cc(N)n(S(=O)(=O)c3c(F)c(F)c(F)c(F)c3F)n2)cc1OC | 1.08 | 9.68 µM (inactive)
65 | Cc1ccc(SC(=O)COc2ccc(C)c(C)c2)cc1 | > 10 | > 10 µM (inactive)
66 | COC(=O)c1ccc(CSc2nnc(NC(C)C)s2)cc1 | > 10 | > 10 µM (inactive)
67 | NC(=O)c1c(NC(=O)CN2C(=O)CCC2=O)sc2c1CCCCC2 | > 10 | > 10 µM (inactive)
68 | O=C(NCC(c1cccnc1)N1CCN(c2ccccc2)CC1)c1ccc2c(c1)OCO2 (stereo not given) | > 10 | > 10 µM (inactive)
69 | COc1ccc(/C=C2\SC(=S)N(NC(=O)c3csc4c3CCCC4)C2=O)cc1 | > 10 | > 10 µM (inactive)
70 | CCCC(=O)N1CCN(c2ccc(NC(=O)c3cc4ccccc4o3)cc2Cl)CC1 | 19.2 | 12.5 µM
71 | Cc1cccc(-c2c3c(=O)n(C)c(=O)n(C)c3cn2C2CCCCC2)c1 | > 10 | > 10 µM (inactive)
72 | Cc1sc(NC(=O)c2ccco2)c(C(c2cccnc2)N2CCC(C)CC2)c1C (stereo not given) | 5.77 | 13.9 µM (inactive)
73 | C/C(=N\N=C(/N)SC1CC(=O)N(c2ccc(Cl)c(Cl)c2)C1=O)c1cccs1 (stereo not given) | 5.98 | > 10 µM (inactive)
74 | Cc1cc2ncn(CC(O)COc3cccc(C(=O)O)c3)c2cc1C (stereo not given) | > 10 | > 10 µM (inactive)
75 | O=C(O)Cn1c(SCCOc2ccccc2F)nc2ccccc21 | > 10 | > 10 µM (inactive)
76 | c1ccc(-c2ccc(-c3cnc4n3CCCCC4)cc2)cc1 | > 10 | > 10 µM (inactive)
77 | Cc1ccc(NS(=O)(=O)c2cc(C(=O)N3CCOCC3)ccc2C)cc1 | > 10 | > 10 µM (inactive)
78 | Cc1cccnc1Nc1nc(-c2ccccn2)cs1 | > 10 | > 10 µM (inactive)
79 | CCOC(=O)c1c(NC(=O)CN2CCCCC2)sc2c1CCC(C=O)=C2Cl | > 10 | > 10 µM (inactive)
80 | Cc1ccc(C(=O)OCn2ncc(Cl)c(Cl)c2=O)cc1 | 4.62 | > 10 µM (inactive)
